The subject of experiment [1] is RKO36 cells. As to the kind of experiment: GFP direct repeat assay of delayed hyperrecombination (GFP+/- colonies). Format: cell-based, human. The source says:
Gene conversion can produce a local loss of heterozygosity (LOH) as well as deletions and inversions at linked repeats and translocations (Nickoloff, 2002). The inventor has utilized a green fluorescence protein (GFP)-based assay using human RKO-derived cells to study the role of delayed hyper-recombination in radiation-induced genomic instability (Huang et al., 2004). A GFP direct repeat homologous recombination substrate is incorporated in RKO cells.
Genomic instability can be measured by analysis of delayed hyperrecombination and mutation/deletion at the GFP direct repeat substrate. GFP-RKO cells can be GFP− or GFP+. When these cells are plated, colonies arising from single cells are either homogenously colorless (GFP−) or green (GFP+). […] Mixed colonies arise by delayed hyperrecombination and can easily be scored using the criteria of having at least >4 cells per colony having an altered fluorescent phenotype. The frequency of induced instability can be calculated as the number of GFP+/− colonies per total surviving colonies scored.
Genomic instability was evaluated in RKO36 cells by analysis of delayed hyperrecombination and mutation/deletion at the GFP direct repeat substrate. […] The frequency of induced instability is calculated as the number of GFP+/− colonies per total surviving colonies scored (Huang et al., 2004). […]

Experiment [2] relates to RKO36 cells. Kind of experiment: Micronuclei formation in irradiated RKO36 cells. The class given is cell-based, human. The method, then:
Under the treatment conditions in which cells were exposed to WR1065 either 30 min before or 3 h following irradiation the protective effect is the result of a direct interaction between the thiol taken up by the cells and the damage induced by radiation. This direct protective effect disappeared when the drug was added 6 h following irradiation. However, when cells were exposed to the thiol 24 h prior to irradiation to allow for the induction of elevated MnSOD enzyme levels, a protective effect was again observed ([…]). In contrast to the data described in FIG. 4A, the protection described in FIG. 4B was mediated not directly by thiol action (Grdina et al., 1995) but as a result of a thiol-induced adaptive response mediated through the activation of NFκB resulting in the elevation of MnSOD activity (Murley et al., 2002; Murley et al., 2004; Murley et al., 2006; Murley et al., 2007; Murley et al., 2008). For comparison, a radiation-induced adaptive response was investigated by first exposing RKO36 cells to 10 cGy and then challenging with a 2 Gy dose 0, 4, 8, 12, 16, 20, and 24 h later (see FIG. 5).

1 molecule from patent US10987366B2, “Methods and compositions for protection of cells and tissues from computed tomography radiation” (The University of Chicago, priority 2010, dated 2021) can be followed below.

Molecules are shown by their SMILES.

`NCCCNCCS` [WR1065, 2-[(aminopropyl)amino]ethanethiol]: the “frequency of GFP+/- colonies” value in the experiment with RKO36 cells [1] (4 mM WR1065 for 30 min, no irradiation, P=0.02 vs non-WR1065 irradiated cells (2.7%)) is given as 1.1%; in the experiment on RKO36 cells [1] (10 cGy given 24 h following 4 mM WR1065 for 30 min, P=0.05 vs non-WR1065 irradiated cells (2.7%)), 1.6%. Also, in the experiment with RKO36 cells [2] (2 Gy challenge 24 h following WR1065 exposure), the “micronuclei formation, thiol-induced adaptive response” value is listed as “reduction of micronuclei formation to unirradiated background levels”. The “frequency of micronuclei formation” value in the experiment on RKO36 cells [2] (2 Gy, WR1065 30 min following irradiation (FIG. 4B)) is “significantly reduced”; with RKO36 cells [2] (2 Gy, WR1065 30 min prior to irradiation (FIG. 4A)) it was “significantly reduced”; with RKO36 cells [2] (2 Gy, WR1065 1 h following irradiation (FIG. 4B)), “significantly reduced”; with RKO36 cells [2] (2 Gy, WR1065 2 h following irradiation (FIG. 4B)) it was “significantly reduced”; in the experiment on RKO36 cells [2] (2 Gy, WR1065 3 h following irradiation (FIG. 4B)), “significantly reduced”; with RKO36 cells [2] (2 Gy, WR1065 24 h prior to irradiation (FIG. 4A)) it was “significantly reduced”. Also, the “direct protective effect against micronuclei formation” value in the experiment with RKO36 cells [2] (2 Gy, drug added 6 h following irradiation) was “disappeared”.
